In patent publication US20170050957A1, “4-AMINO-6-(HETEROCYCLIC)PICOLINATES AND 6-AMINO-2-(HETEROCYCLIC)PYRIMIDINE-4-CARBOXYLATES AND THEIR USE AS HERBICIDES” (Dow AgroSciences LLC, priority 2013, published 2017):
Where two headings read alike, the source gives them in different places.

Columns and labels:
[1] = test system: Key Grass and Sedge Weeds as well as Grass Crops; assay: Post-emergent Test II herbicidal activity (Table 16); type: in vivo; conditions: post-emergence, 336 h, 14 d; for pest or weed control at 35 g/ha: 35 g ai/ha; for pest or weed control at 70 g/ha: 70 g ai/ha; for pest or weed control at 140 g/ha: 140 g ai/ha
How it was run: (§1)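 Greenhouse-grown seedlings at first/second true leaf receive a track spray at 187 L/ha, using a highest rate plus two-fold serial dilutions down to 1/16×. Watering is by subirrigation to avoid wash-off. Percent injury (0-100) is judged by eye at 14 d against untreated plants.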

[2] = test system: Key Broadleaf Weed and Crop Species; assay: Post-emergent Test II herbicidal activity (Table 15); type: in vivo; conditions: post-emergence, 336 h, 14 d; for pest or weed control at 35 g/ha: 35 g ai/ha; for pest or weed control at 70 g/ha: 70 g ai/ha; for pest or weed control at 140 g/ha: 140 g ai/ha
How it was run: as §1

[3] = test system: undesirable vegetation; assay: Herbicidal activity, comparison X is CF with X is CH; type: in vivo; conditions: 1.08 and 1.09 vs 1.21 and 1.22; 1.15 and 1.16 vs 1.23 and 1.24; A is A15
[4] = Cyperus esculentus, yellow nutsedge (Cyperus esculentus), read-out: Visual Growth Reduction (%) 14 Days After Application, CYPES
[5] = Echinochloa crus-galli, barnyardgrass (Echinochloa crus-galli), read-out: Visual Growth Reduction (%) 14 Days After Application, ECHCG
[6] = Oryza sativa, rice (Oryza sativa), read-out: Visual Growth Reduction (%) 14 Days After Application, ORYSA
[7] = Setaria faberi, giant foxtail (Setaria faberi), read-out: Visual Growth Reduction (%) 14 Days After Application, SETFA
[8] = Triticum aestivum, wheat, spring (Triticum aestivum), read-out: Visual Growth Reduction (%) 14 Days After Application, TRZAS
[9] = Zea mays, maize, corn (Zea mays), read-out: Visual Growth Reduction (%) 14 Days After Application, ZEAMX
[10] = Abutilon theophrasti, velvetleaf (Abutilon theophrasti), read-out: Visual Growth Reduction (%) 14 Days After Application, ABUTH
[11] = Amaranthus retroflexus, redroot pigweed (Amaranthus retroflexus), read-out: Visual Growth Reduction (%) 14 Days After Application, AMARE
[12] = Brassica napus, oilseed rape, canola (Brassica napus), read-out: Visual Growth Reduction (%) 14 Days After Application, BRSNN
[13] = Chenopodium album, lambsquarters (Chenopodium album), read-out: Visual Growth Reduction (%) 14 Days After Application, CHEAL
[14] = Euphorbia heterophylla, wild poinsettia (Euphorbia heterophylla), read-out: Visual Growth Reduction (%) 14 Days After Application, EPHHL
[15] = Helianthus annuus, sunflower (Helianthus annuus), read-out: Visual Growth Reduction (%) 14 Days After Application, HELAN

SMILES	pest or weed control at 35 g/ha [1, 4]	pest or weed control at 70 g/ha [1, 4]	pest or weed control at 140 g/ha [1, 4]	pest or weed control at 35 g/ha [1, 5]	pest or weed control at 70 g/ha [1, 5]	pest or weed control at 140 g/ha [1, 5]	pest or weed control at 35 g/ha [1, 6]	pest or weed control at 70 g/ha [1, 6]	pest or weed control at 140 g/ha [1, 6]	pest or weed control at 35 g/ha [1, 7]	pest or weed control at 70 g/ha [1, 7]	pest or weed control at 140 g/ha [1, 7]	pest or weed control at 35 g/ha [1, 8]	pest or weed control at 70 g/ha [1, 8]	pest or weed control at 140 g/ha [1, 8]	pest or weed control at 35 g/ha [1, 9]	pest or weed control at 70 g/ha [1, 9]	pest or weed control at 140 g/ha [1, 9]	melting point	pest or weed control at 35 g/ha [2, 10]	also measured
COC(=O)c1nc(-c2ccc3cc[nH]c3c2)c(F)c(N)c1Cl [Compound 1.08]	0 to 29%	0 to 29%	0 to 29%	85 to 94%	95 to 100%	95 to 100%	0 to 29%	0 to 29%	0 to 29%	0 to 29%	60 to 74%	75 to 84%	0 to 29%	0 to 29%	30 to 44%	45 to 59%	75 to 84%	85 to 94%	66 to 69 °C	85 to 94%	pest or weed control at 70 g/ha [2, 10]: 95 to 100%; pest or weed control at 140 g/ha [2, 10]: 95 to 100%; pest or weed control at 35 g/ha [2, 11]: 95 to 100%; pest or weed control at 70 g/ha [2, 11]: 95 to 100%; pest or weed control at 140 g/ha [2, 11]: 95 to 100%; pest or weed control at 35 g/ha [2, 12]: 45 to 59%; pest or weed control at 70 g/ha [2, 12]: 75 to 84%; pest or weed control at 140 g/ha [2, 12]: 85 to 94%; pest or weed control at 35 g/ha [2, 13]: 95 to 100%; pest or weed control at 70 g/ha [2, 13]: 95 to 100%; pest or weed control at 140 g/ha [2, 13]: 95 to 100%; pest or weed control at 35 g/ha [2, 14]: 95 to 100%; pest or weed control at 70 g/ha [2, 14]: 95 to 100%; pest or weed control at 140 g/ha [2, 14]: 95 to 100%; pest or weed control at 35 g/ha [2, 15]: 85 to 94%; pest or weed control at 70 g/ha [2, 15]: 95 to 100%; pest or weed control at 140 g/ha [2, 15]: 95 to 100%; activity when X is CF compared with X is CH [3]: significant increase in activity
Nc1c(F)c(-c2ccc3cc[nH]c3c2)nc(C(=O)O)c1Cl [Compound 1.09]	30 to 44%	75 to 84%	85 to 94%	95 to 100%	95 to 100%	95 to 100%	0 to 29%	0 to 29%	0 to 29%	85 to 94%	85 to 94%	85 to 94%	0 to 29%	0 to 29%	0 to 29%	60 to 74%	75 to 84%	75 to 84%	138 to 140 °C	95 to 100%	pest or weed control at 70 g/ha [2, 10]: 95 to 100%; pest or weed control at 140 g/ha [2, 10]: 95 to 100%; pest or weed control at 35 g/ha [2, 11]: 95 to 100%; pest or weed control at 70 g/ha [2, 11]: 95 to 100%; pest or weed control at 140 g/ha [2, 11]: 95 to 100%; pest or weed control at 35 g/ha [2, 12]: 95 to 100%; pest or weed control at 70 g/ha [2, 12]: 95 to 100%; pest or weed control at 140 g/ha [2, 12]: 95 to 100%; pest or weed control at 35 g/ha [2, 13]: 95 to 100%; pest or weed control at 70 g/ha [2, 13]: 95 to 100%; pest or weed control at 140 g/ha [2, 13]: 95 to 100%; pest or weed control at 35 g/ha [2, 14]: 85 to 94%; pest or weed control at 70 g/ha [2, 14]: 95 to 100%; pest or weed control at 140 g/ha [2, 14]: 95 to 100%; pest or weed control at 35 g/ha [2, 15]: 95 to 100%; pest or weed control at 70 g/ha [2, 15]: 95 to 100%; pest or weed control at 140 g/ha [2, 15]: 95 to 100%; activity when X is CF compared with X is CH [3]: significant increase in activity
